Test results as given in the supplement of paper PMC11061612.

Assays:
Prexasertib = compound: COc1cccc(OCCCN)c1-c1cc(Nc2cnc(C#N)cn2)n[nH]1 [Prexasertib]; details: max 1 µM
Procedure, shortened: (§1)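 Following 24 hours at 37°C and 5% CO2, cancer cell lines in 1536-well plates with 7.5 μl DMEM/F12 or RPMI and 10% FBS were dosed for 72 hours, final DMSO typically being 0.2%. CellTiter-Glo 2.0 luminescence, scaled between blank-well and DMSO-well means, gave the viability readout. Dose responses were fitted to a two-parameter logistic curve with a non-linear mixed effects model, and the single-agent IC50 was derived from this fit.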

Savolitinib = compound: C[C@@H](c1ccc2nccn2c1)n1nnc2ncc(-c3cnn(C)c3)nc21 [Savolitinib]; details: max 1 µM
Procedure, shortened: as §1

Gefitinib = compound: COc1cc2ncnc(Nc3ccc(F)c(Cl)c3)c2cc1OCCCN1CCOCC1 [Gefitinib]; details: max 10 µM
Procedure, shortened: as §1

MK-2206 = compound: NC1(c2ccc(-c3nc4ccn5c(=O)[nH]nc5c4cc3-c3ccccc3)cc2)CCC1 [MK-2206]; details: max 10 µM
Procedure, shortened: as §1

AZD7648 = compound: Cc1cc2ncnn2cc1Nc1ncc2c(n1)n(C1CCOCC1)c(=O)n2C [AZD7648]; details: max 10 µM
Procedure, shortened: as §1

Dasatinib = compound: CC1=C(C(=CC=C1)Cl)NC(=O)C2=CN=C(S2)NC3=CC(=NC(=N3)C)N4CCN(CC4)CCO [Dasatinib]; details: max 2 µM
Procedure, shortened: as §1

AZD5153 = compound: COc1nnc2ccc(N3CCC(c4ccc(OCCN5CCN(C)C(=O)[C@H]5C)cc4)CC3)nn12 [AZD5153]; details: max 1 µM
Procedure, shortened: as §1

AZD8186 = compound: C[C@@H](Nc1cc(F)cc(F)c1)c1cc(C(=O)N(C)C)cc2c(=O)cc(N3CCOCC3)oc12 [AZD8186]; details: max 10 µM
Procedure, shortened: as §1

Olaparib = compound: O=C(c1cc(Cc2n[nH]c(=O)c3ccccc23)ccc1F)N1CCN(C(=O)C2CC2)CC1 [Olaparib]; details: max 10 µM
Procedure, shortened: as §1

AZD4320 = compound: CN(CC[C@H](CSC1=CC=CC=C1)NC2=C(C=C(C=C2)S(=O)(=O)NC(=O)C3=CC=C(C=C3)N4CCC(CC4)[C@H](C5=CC=CC=C5C6=CC=C(C=C6)Cl)O)S(=O)(=O)C(F)(F)F)CCO [AZD4320]; details: max 1 µM
Procedure, shortened: as §1

Palbociclib = compound: CC(=O)c1c(C)c2cnc(Nc3ccc(N4CCNCC4)cn3)nc2n(C2CCCC2)c1=O [Palbociclib]; details: max 10 µM
Procedure, shortened: as §1

AZD1390 = compound: CC(C)n1c(=O)n(C)c2cnc3cc(F)c(-c4ccc(OCCCN5CCCCC5)nc4)cc3c21 [AZD1390]; details: max 0.3 µM
Procedure, shortened: as §1

Carboplatin = compound: C1CC(C1)(C(=O)[O-])C(=O)[O-].N.N.[Pt+2] [Carboplatin]; details: max 10 µM
Procedure, shortened: as §1

Lapatinib = compound: CS(=O)(=O)CCNCc1ccc(-c2ccc3ncnc(Nc4ccc(OCc5cccc(F)c5)c(Cl)c4)c3c2)o1 [Lapatinib]; details: max 10 µM
Procedure, shortened: as §1

Gemcitabine = compound: Nc1ccn([C@@H]2O[C@H](CO)[C@@H](O)C2(F)F)c(=O)n1 [Gemcitabine]; details: max 0.3 µM
Procedure, shortened: as §1

Doxorubicin = compound: COc1cccc2c1C(=O)c1c(O)c3c(c(O)c1C2=O)C[C@@](O)(C(=O)CO)C[C@@H]3O[C@H]1C[C@H](N)[C@H](O)[C@H](C)O1 [Doxorubicin]; details: max 1 µM
Procedure, shortened: as §1

Paclitaxel = compound: CC(=O)O[C@H]1C(=O)[C@@]2(C)[C@H]([C@H](OC(=O)c3ccccc3)[C@]3(O)C[C@H](OC(=O)[C@H](O)[C@@H](NC(=O)c4ccccc4)c4ccccc4)C(C)=C1C3(C)C)[C@]1(OC(C)=O)CO[C@@H]1C[C@@H]2O [Paclitaxel]; details: max 3 µM
Procedure, shortened: as §1

Alisertib = compound: COc1cc(Nc2ncc3c(n2)-c2ccc(Cl)cc2C(c2c(F)cccc2OC)=NC3)ccc1C(=O)O [Alisertib]; details: max 10 µM
Procedure, shortened: as §1

AZD0156 = compound: CN(C)CCCOc1ccc(-c2ccc3ncc4c(c3c2)n(C2CCOCC2)c(=O)n4C)cn1 [AZD0156]; details: max 3 µM
Procedure, shortened: as §1

AZD5363 = compound: C1CN(CCC1(C(=O)N[C@@H](CCO)C2=CC=C(C=C2)Cl)N)C3=NC=NC4=C3C=CN4 [AZD5363]; details: max 10 µM
Procedure, shortened: as §1

5-Fluorouracil = compound: O=c1[nH]cc(F)c(=O)[nH]1 [5-Fluorouracil]; details: max 20 µM
Procedure, shortened: as §1

AZD6738 = compound: C[C@@H]1COCCN1C2=NC(=NC(=C2)C3(CC3)[S@](=N)(=O)C)C4=C5C=CNC5=NC=C4 [AZD6738]; details: max 10 µM
Procedure, shortened: as §1

Trametinib = compound: CC(=O)Nc1cccc(-n2c(=O)n(C3CC3)c(=O)c3c(Nc4ccc(I)cc4F)n(C)c(=O)c(C)c32)c1 [Trametinib]; details: max 1 µM
Procedure, shortened: as §1

Taselisib = compound: Cc1nc(-c2cn3c(n2)-c2ccc(-c4cnn(C(C)(C)C(N)=O)c4)cc2OCC3)n(C(C)C)n1 [Taselisib]; details: max 10 µM
Procedure, shortened: as §1

AZD1775 = compound: C=CCn1c(=O)c2cnc(Nc3ccc(N4CCN(C)CC4)cc3)nc2n1-c1cccc(C(C)(C)O)n1 [AZD1775]; details: max 3 µM
Procedure, shortened: as §1

SN-38 = compound: CCc1c2c(nc3ccc(O)cc13)-c1cc3c(c(=O)n1C2)COC(=O)[C@]3(O)CC [SN-38]; details: max 0.3 µM
Procedure, shortened: as §1

SRA737 = compound: N#Cc1cnc(Nc2cc(NC[C@H]3CNCCO3)c(C(F)(F)F)cn2)cn1 [SRA737]; details: max 10 µM
Procedure, shortened: as §1

Crizotinib = compound: C[C@@H](Oc1cc(-c2cnn(C3CCNCC3)c2)cnc1N)c1c(Cl)ccc(F)c1Cl [Crizotinib]; details: max 10 µM
Procedure, shortened: as §1

[1] = compound: O=C(Nc1ccc2[nH]nc(-c3ccncc3)c2c1)[C@@H]1CCN(CC(=O)N2CCN(c3ccc(-c4ncccn4)cc3)CC2)C1; details: max 5 µM
Procedure, shortened: as §1

Venetoclax = compound: CC1(C)CCC(CN2CCN(c3ccc(C(=O)NS(=O)(=O)c4ccc(NCC5CCOCC5)c([N+](=O)[O-])c4)c(Oc4cnc5[nH]ccc5c4)c3)CC2)=C(c2ccc(Cl)cc2)C1 [Venetoclax]; details: max 1 µM
Procedure, shortened: as §1

Selumetinib = compound: Cn1cnc2c(F)c(Nc3ccc(Br)cc3Cl)c(C(=O)NOCCO)cc21 [Selumetinib]; details: max 10 µM
Procedure, shortened: as §1

AZD2811 = compound: CCN(CCO)CCCOc1ccc2c(Nc3cc(CC(=O)Nc4cccc(F)c4)[nH]n3)ncnc2c1 [AZD2811]; details: max 1 µM
Procedure, shortened: as §1

SG3199 = compound: CC1=CN2[C@@H](C1)C=NC3=CC(=C(C=C3C2=O)OC)OCCCCCOC4=C(C=C5C(=C4)N=C[C@@H]6CC(=CN6C5=O)C)OC [SG3199]; details: max 0.001 µM
Procedure, shortened: as §1

AZD5991 = compound: Cc1c2c(nn1C)CSCc1cc(n(C)n1)CSc1cc(c3ccccc3c1)OCCCc1c(C(=O)O)n(C)c3c-2c(Cl)ccc13 [AZD5991]; details: max 1 µM
Procedure, shortened: as §1

Etoposide = compound: COc1cc([C@@H]2c3cc4c(cc3[C@@H](O[C@@H]3O[C@@H]5CO[C@@H](C)O[C@H]5[C@H](O)[C@H]3O)[C@H]3COC(=O)[C@H]23)OCO4)cc(OC)c1O [Etoposide]; details: max 10 µM
Procedure, shortened: as §1

Cell Line	IC50, cell viability 72 h (Prexasertib) [nM]	IC50, cell viability 72 h (Savolitinib) [nM]	IC50, cell viability 72 h (Gefitinib) [nM]	IC50, cell viability 72 h (MK-2206) [nM]	IC50, cell viability 72 h (AZD7648) [nM]	IC50, cell viability 72 h (Dasatinib) [nM]	IC50, cell viability 72 h (AZD5153) [nM]	IC50, cell viability 72 h (AZD8186) [nM]	IC50, cell viability 72 h (Olaparib) [nM]	IC50, cell viability 72 h (AZD4320) [nM]	IC50, cell viability 72 h (Palbociclib) [nM]	IC50, cell viability 72 h (AZD1390) [nM]	IC50, cell viability 72 h (Carboplatin) [nM]	IC50, cell viability 72 h (Lapatinib) [nM]	IC50, cell viability 72 h (Gemcitabine) [nM]	IC50, cell viability 72 h (Doxorubicin) [nM]	IC50, cell viability 72 h (Paclitaxel) [nM]	IC50, cell viability 72 h (Alisertib) [nM]	IC50, cell viability 72 h (AZD0156) [nM]	IC50, cell viability 72 h (AZD5363) [nM]	IC50, cell viability 72 h (5-Fluorouracil) [nM]	IC50, cell viability 72 h (AZD6738) [nM]	IC50, cell viability 72 h (Trametinib) [nM]	IC50, cell viability 72 h (Taselisib) [nM]	IC50, cell viability 72 h (AZD1775) [nM]	IC50, cell viability 72 h (SN-38) [nM]	IC50, cell viability 72 h (SRA737) [nM]	IC50, cell viability 72 h (Crizotinib) [nM]	IC50, cell viability 72 h [1] [nM]	IC50, cell viability 72 h (Venetoclax) [nM]	IC50, cell viability 72 h (Selumetinib) [nM]	IC50, cell viability 72 h (AZD2811) [nM]	IC50, cell viability 72 h (SG3199) [nM]	IC50, cell viability 72 h (AZD5991) [nM]	IC50, cell viability 72 h (Etoposide) [nM]
ONS-76 (Other Solid Carcinomas)	8.7	> 1000	> 10000	> 10000	> 10000	> 2000	940	> 10000	> 10000	> 1000	> 10000	> 300	> 10000	> 10000	257	252	66.1	> 10000	> 3000	> 10000	> 20000	1000	23.9	> 10000	1190	43.7	1690	> 10000	270	> 1000	1910	> 1000	> 1	> 1000	8960
PANC-10-05 (Pancreatic Carcinoma)	> 1000	> 1000	> 10000	> 10000	> 10000	1510	732	> 10000	> 10000	> 1000	> 10000	> 300	> 10000	> 10000	> 300	> 1000	378	> 10000	> 3000	> 10000	> 20000	> 10000	438	7170	1270	59.5	> 10000	> 10000	3330	> 1000	> 10000	> 1000	> 1	> 1000	> 10000
TT (Thyroid Gland Carcinoma)	249	> 1000	> 10000	> 10000	> 10000	> 2000	808	> 10000	> 10000	> 1000	> 10000	> 300	> 10000	> 10000	> 300	> 1000	> 3000	> 10000	> 3000	> 10000	> 20000	> 10000	> 1000	> 10000	> 3000	68.8	> 10000	> 10000	> 5000	> 1000	> 10000	> 1000	> 1	> 1000	> 10000
U-2-OS (Osteosarcoma)	17.4	> 1000	> 10000	> 10000	> 10000	> 2000	> 1000	> 10000	> 10000	> 1000	> 10000	> 300	> 10000	> 10000	> 300	> 1000	162	> 10000	> 3000	> 10000	> 20000	> 10000	140	> 10000	1080	> 300	5430	> 10000	2130	> 1000	> 10000	> 1000	> 1	> 1000	> 10000
VCaP (Prostate Carcinoma)	85.4	> 1000	> 10000	9700	> 10000	> 2000	122	> 10000	> 10000	> 1000	> 10000	> 300	> 10000	> 10000	65	> 1000	22.4	> 10000	> 3000	7960	> 20000	> 10000	> 1000	3150	1450	205	> 10000	> 10000	> 5000	> 1000	> 10000	> 1000	> 1	316	9350
